Reference: ChEMBL document CHEMBL2157897, “Meso-tetrakis(p-sulfonatophenyl)N-confused porphyrin tetrasodium salt: a potential sensitizer for photodynamic therapy” (J Med Chem, 2012)
pIC50: −log10 of the molar value. The source made the active and inactive calls. No cut-off for these calls is given here.

Assays:
MDA-MB-231 [1] = assay: Induction of apoptosis in human MDA-MB-231 cells assessed as PARP cleavage at 6 and 12 uM preincubated for 1 hr followed by photoirradiation by immunoblotting; format: functional, cell-based
[2] = Photocytotoxicity against human SCC131 cells preincubated for 1 hr prior to illumination measured after 24 hrs post illumination by MTT assay; format: functional, cell-based
MDA-MB-231 [3] = assay: Induction of apoptosis in human MDA-MB-231 cells assessed as early apoptotic cells at 6 uM preincubated for 1 hr followed by photoirradiation by annexin V-FITC/propidium iodide staining based flow cytometry (reference value: 3.5 +/- 0.41 %); format: functional
MDA-MB-231 [4] = assay: Induction of apoptosis in human MDA-MB-231 cells assessed as chromatin condensation at 12 uM preincubated for 1 hr followed by photoirradiation measured after 24 hrs by Hoechst staining based fluorescence microscopy (reference value: 10.4 +/- 1.5 %); format: functional
HCT-116 [5] = assay: Photocytotoxicity against human HCT116 cells preincubated for 1 hr prior to illumination measured after 24 hrs post illumination by MTT assay; format: functional, cell-based
[6] = Cytotoxicity against human SCC131 cells assessed as cell viability at 10 to 50 uM after 24 hrs by MTT assay in absence of light; format: cell-based; details: scc131, 24 h
MDA-MB-231 [7] = assay: Photocytotoxicity against human MDA-MB-231 cells preincubated for 1 hr prior to illumination measured after 24 hrs post illumination by MTT assay; format: functional, cell-based
MDA-MB-231 [8] = assay: Induction of ROS generation in human MDA-MB-231 cells using CM-H2DCFDA as probe at 12 uM after 24 hrs post photoirradiation by FACS flow cytometry (reference value: 13.7 +/- 2.3 %); format: functional
[9] = Photocytotoxicity against human SCC172 cells preincubated for 1 hr prior to illumination measured after 24 hrs post illumination by MTT assay; format: functional, cell-based
MDA-MB-231 [10] = assay: Induction of apoptosis in human MDA-MB-231 cells at 12 uM after 1 hr by annexin V-FITC/propidium iodide staining based flow cytometry in absence of light; format: cell-based; details: mda-mb-231, 1 h
SiHa [11] = assay: Cytotoxicity against human SiHa cells assessed as cell viability at 10 to 50 uM after 24 hrs by MTT assay in absence of light; format: cell-based
MDA-MB-231 [12] = assay: Ratio of IC50 for human HeLa cells to IC50 for human MDA-MB-231 cells; format: functional
MDA-MB-231 [13] = assay: Induction of apoptosis in human MDA-MB-231 cells assessed as decrease in mitochondrial membrane potential at 12 uM preincubated for 1 hr followed by photoirradiation measured after 24 hrs by JC1 staining based fluorescence microscopy (reference value: 12.1 +/- 4.9 %); format: functional; parameters: scale not given: the % may be the effect or the level left
HeLa [14] = assay: Photocytotoxicity against human HeLa cells preincubated for 1 hr prior to illumination measured after 24 hrs post illumination by MTT assay; format: functional, cell-based
MCF7 [15] = assay: Cytotoxicity against human MCF7 cells assessed as cell viability at 10 to 50 uM after 24 hrs by MTT assay in absence of light; format: cell-based; details: mcf7, 24 h
SiHa [16] = assay: Photocytotoxicity against human SiHa cells preincubated for 1 hr prior to illumination measured after 24 hrs post illumination by MTT assay; format: functional, cell-based
HeLa [17] = assay: Cytotoxicity against human HeLa cells assessed as cell viability at 10 to 50 uM after 24 hrs by MTT assay in absence of light; format: cell-based
MDA-MB-231 [18] = assay: Induction of ROS generation in human MDA-MB-231 cells using CM-H2DCFDA as probe at 6 uM after 24 hrs post photoirradiation by FACS flow cytometry (reference value: 13.7 +/- 2.3 %); format: functional
HCT-116 [19] = assay: Cytotoxicity against human HCT116 cells assessed as cell viability at 10 to 50 uM after 24 hrs by MTT assay in absence of light; format: cell-based; details: hct-116, 24 h
MDA-MB-231 [20] = assay: Induction of apoptosis in human MDA-MB-231 cells assessed as chromatin condensation preincubated for 1 hr followed by photoirradiation measured after 24 hrs by Hoechst staining based fluorescence microscopy; format: functional, cell-based
[21] = Cytotoxicity against human SCC172 cells assessed as cell viability at 10 to 50 uM after 24 hrs by MTT assay in absence of light; format: cell-based; details: scc172, 24 h
MDA-MB-231 [22] = assay: Induction of apoptosis in human MDA-MB-231 cells assessed as PARP cleavage at 12 uM after 1 hr by immunoblotting in absence of light; format: cell-based; details: mda-mb-231, 1 h
MDA-MB-231 [23] = assay: Induction of apoptosis in human MDA-MB-231 cells assessed as decrease in mitochondrial membrane potential at 6 uM preincubated for 1 hr followed by photoirradiation measured after 24 hrs by JC1 staining based fluorescence microscopy (reference value: 12.1 +/- 4.9 %); format: functional; parameters: scale not given: the % may be the effect or the level left
MDA-MB-231 [24] = assay: Induction of apoptosis in human MDA-MB-231 cells assessed as chromatin condensation at 6 uM preincubated for 1 hr followed by photoirradiation measured after 24 hrs by Hoechst staining based fluorescence microscopy (reference value: 10.4 +/- 1.5 %); format: functional
MDA-MB-231 [25] = assay: Induction of ROS generation in human MDA-MB-231 cells using CM-H2DCFDA as probe after 24 hrs post photoirradiation by FACS flow cytometry; format: functional, cell-based
MDA-MB-231 [26] = assay: Induction of apoptosis in human MDA-MB-231 cells assessed as early apoptotic cells at 12 uM preincubated for 1 hr followed by photoirradiation by annexin V-FITC/propidium iodide staining based flow cytometry (reference value: 3.5 +/- 0.41 %); format: functional
MCF7 [27] = assay: Photocytotoxicity against human MCF7 cells preincubated for 1 hr prior to illumination measured after 24 hrs post illumination by MTT assay; format: functional, cell-based
MDA-MB-231 [28] = assay: Cytotoxicity against human MDA-MB-231 cells assessed as cell viability at 10 to 50 uM after 24 hrs by MTT assay in absence of light; format: cell-based; details: mda-mb-231, 24 h
MIA PaCa-2 [29] = assay: Cytotoxicity against human MIAPaCa2 cells assessed as cell viability at 10 to 50 uM after 24 hrs by MTT assay in absence of light; format: cell-based; details: mia paca-2, 24 h
MIA PaCa-2 [30] = assay: Photocytotoxicity against human MIAPaCa2 cells preincubated for 1 hr prior to illumination measured after 24 hrs post illumination by MTT assay; format: functional, cell-based

O=S(=O)([O-])c1ccc(-c2c3cc(c(-c4ccc(S(=O)(=O)[O-])cc4)c4ccc([nH]4)c(-c4ccc(S(=O)(=O)[O-])cc4)c4nc(c(-c5ccc(S(=O)(=O)[O-])cc5)c5ccc2[nH]5)C=C4)N=C3)cc1.[Na+].[Na+].[Na+].[Na+]
Activity (MDA-MB-231 [1]): Active
pIC50 [2]: 4.89
Activity (MDA-MB-231 [3]): 65.8%
Activity (MDA-MB-231 [4]): 91%
pIC50 (HCT-116 [5]): 5.10
Activity [6]: Non-toxic
pIC50 (MDA-MB-231 [7]): 5.22
Activity (MDA-MB-231 [8]): 79.5%
pIC50 [9]: 4.96
Activity (MDA-MB-231 [10]): Non-toxic
Activity (SiHa [11]): Non-toxic
Ratio IC50 (MDA-MB-231 [12]): 5
Activity (MDA-MB-231 [13]): 88.5%
pIC50 (HeLa [14]): 4.60
Activity (MCF7 [15]): Non-toxic
pIC50 (SiHa [16]): 4.70
Activity (HeLa [17]): Non-toxic
Activity (MDA-MB-231 [18]): 61.8%
Activity (HCT-116 [19]): Non-toxic
Activity (MDA-MB-231 [20]): Dose-dependent effect
Activity [21]: Non-toxic
Activity (MDA-MB-231 [22]): Non-toxic
Activity (MDA-MB-231 [23]): 69.7%
Activity (MDA-MB-231 [24]): 72%
Activity (MDA-MB-231 [25]): Dose-dependent effect
Activity (MDA-MB-231 [26]): 83.9%
pIC50 (MCF7 [27]): 4.92
Activity (MDA-MB-231 [28]): Non-toxic
Activity (MIA PaCa-2 [29]): Non-toxic
pIC50 (MIA PaCa-2 [30]): 5.10
